Laboratory results: ChEMBL document CHEMBL1201862, “PubChem BioAssay data set” (2004)
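Compound exposure: 48 hours, 5 concentrations, 96-well plates. GI50 marks 50% less growth.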 The source made the active and inactive calls. Cut-off read from the data, not from the text of the source: active = GI50 up to about 1.1 µM and inactive = higher.

Assays:
Experiment in all cases: NCI tumour cell line growth inhibition, 48 h
EKVX = tested on: EKVX
HCC 2998 = tested on: HCC 2998
HCT-116 = tested on: HCT-116
LOX IMVI = tested on: LOX IMVI
MOLT-4 = tested on: MOLT-4
NCI-H460 = tested on: NCI-H460
OVCAR-4 = tested on: OVCAR-4
RXF 393 = tested on: RXF 393
SK-MEL-2 = tested on: SK-MEL-2
SK-MEL-5 = tested on: SK-MEL-5
SK-OV-3 = tested on: SK-OV-3
TK-10 = tested on: TK-10
U-251 = tested on: U-251
UACC-62 = tested on: UACC-62
K562 = tested on: K562
A498 = tested on: A498

Measured: GI50

CCOC(=O)C(c1ccsc1)P(=O)(OCC)OCC (centres undefined)
inactive: EKVX 23.9 µM | HCC 2998 19.5 µM | HCT-116 11.5 µM | LOX IMVI 6.5 µM | MOLT-4 > 100 µM | NCI-H460 14.9 µM | OVCAR-4 28.7 µM | RXF 393 13.1 µM | SK-MEL-2 20 µM | SK-MEL-5 15.7 µM | SK-OV-3 23 µM | TK-10 25.4 µM | U-251 17.9 µM | UACC-62 8.22 µM

Cc1ccccc1NC(=O)c1cc(-c2ccc([N+](=O)[O-])cc2)nc(S)n1
inactive: EKVX > 100 µM | HCC 2998 > 100 µM | HCT-116 > 100 µM | K562 > 100 µM | LOX IMVI > 100 µM | MOLT-4 > 100 µM | NCI-H460 > 100 µM | OVCAR-4 > 100 µM | RXF 393 > 100 µM | SK-MEL-2 > 100 µM | SK-MEL-5 > 100 µM | SK-OV-3 > 100 µM | TK-10 > 100 µM | U-251 > 100 µM | UACC-62 > 100 µM

CC(Oc1ccc(OCC2CCCCC2)cc1)C(N)=O (centres undefined)
inactive: HCT-116 > 100 µM | K562 > 100 µM | LOX IMVI > 100 µM | MOLT-4 > 100 µM | NCI-H460 > 100 µM | OVCAR-4 > 100 µM | SK-MEL-2 > 100 µM | SK-MEL-5 > 100 µM | SK-OV-3 > 100 µM | TK-10 > 100 µM | U-251 > 100 µM | UACC-62 > 100 µM

c1ccc(CSc2nc3ccccc3nc2-c2cccs2)cc1
inactive: EKVX > 100 µM | HCC 2998 > 100 µM | HCT-116 > 100 µM | K562 > 100 µM | MOLT-4 > 100 µM | NCI-H460 > 100 µM | OVCAR-4 > 100 µM | SK-MEL-2 > 100 µM | SK-MEL-5 > 100 µM | SK-OV-3 > 100 µM | TK-10 > 100 µM | U-251 > 100 µM

O=C1CCC(=O)C12CCc1ccccc12
inactive: EKVX > 100 µM | HCC 2998 > 100 µM | K562 > 10 µM | LOX IMVI > 100 µM | NCI-H460 > 100 µM | OVCAR-4 > 100 µM | RXF 393 > 100 µM | SK-OV-3 > 100 µM | TK-10 > 100 µM | U-251 > 100 µM | UACC-62 > 100 µM

CC1=C(C(=O)Nc2cc(F)c(F)cc2F)C(c2ccc([N+](=O)[O-])cc2)C(C(=O)Nc2cc(F)c(F)cc2F)=C(C)N1
inactive: A498 18.2 µM | EKVX 13.9 µM | HCC 2998 21.4 µM | HCT-116 25.8 µM | K562 24.2 µM | LOX IMVI 80.2 µM | MOLT-4 15 µM | NCI-H460 43.9 µM | OVCAR-4 18.5 µM | RXF 393 10.6 µM | SK-MEL-2 18 µM | SK-MEL-5 23.6 µM | SK-OV-3 54.5 µM | TK-10 22.5 µM | U-251 30.7 µM
